We go through 16 compounds from US20080293674A1, “Azinyl Imidazoazine and Azinyl Carboxamide” (priority 2004, published 2008).

Where two headings read alike, the source gives them in different places.

Assay [1] concerns Myzus persicae. The assay can be described thus: Myzus test (spray treatment). To be noted: 120 h, after 5 days at a concentration of 500 g/ha, read-out: death rate. The class given is in vivo. On the procedure: After the desired time the death rate was determined in %, where 100% means that all aphids were killed; 0% means that no aphids were killed.
Assay [2] concerns Aphis gossypii. The assay can be described thus: Aphis gossypii test (cotton leaf immersion). Format: in vivo. To be noted: 144 h, after 6 days at a concentration of 100 ppm, cotton leaves (Gossypium hirsutum), read-out: death rate. The protocol: After the desired time the death rate was determined in %, where 100% means that all aphids were killed; 0% means that no aphids were killed

The mark [3] stands for this setting: China cabbage leaves (Brassica pekinensis).

Turning to `FC(F)(F)c1ccncc1-c1ncc2ccccn12` [Example 1, 3-(4-trifluoromethylpyridin-3-yl)-imidazo[1,5-a]pyridine], the pest or weed control at 500 g/ha in assay [1] (setting [3]) was not below 80%. In assay [2], the pest or weed control at 100 ppm is not below 80%.
`FC(F)(F)c1ccncc1-c1nc(Br)c2ccccn12` [Example 3, 1-bromo-3-(4-trifluoromethylpyridin-3-yl)-imidazo[1,5-a]pyridine]: the pest or weed control at 500 g/ha in assay [1] (setting [3]) was not below 80%.
Take `FC(F)(F)c1ccncc1-c1nc(Cl)c2ccccn12` [Example 4, 1-chloro-3-(4-trifluoromethylpyridin-3-yl)-imidazo[1,5-a]pyridine]: the pest or weed control at 500 g/ha in assay [1] (setting [3]) is not below 80%. Besides, the pest or weed control at 100 ppm in assay [2] was not below 80%.
Consider `O=Cc1nc(-c2cnccc2C(F)(F)F)n2ccccc12` [Example 5, 3-(4-trifluoromethylpyridin-3-yl)-imidazo[1,5-a]pyridine-1-carboxaldehyde], for which, in assay [1] (setting [3]), the pest or weed control at 500 g/ha was not below 80%. Also, in assay [2], the pest or weed control at 100 ppm is not below 80%.
With `CO/N=C/c1nc(-c2cnccc2C(F)(F)F)n2ccccc12` [Example 6, 1-methoximinomethyl-3-(4-trifluoromethylpyridin-3-yl)-imidazo[1,5-a]-pyridine], the pest or weed control at 500 g/ha in assay [1] (setting [3]) was not below 80%. Also, the pest or weed control at 100 ppm in assay [2] is not below 80%.
Consider `FC(F)(F)c1ccncc1-c1nc(-c2cccc(Cl)c2)c2ccccn12` [Example 7, 1-(3-chlorophenyl)-3-(4-trifluoromethylpyridin-3-yl)-imidazo[1,5-a]-pyridine], for which the pest or weed control at 500 g/ha in assay [1] (setting [3]) is not below 80%.
Turning to `FC(F)(F)c1ccncc1-c1nc(C#Cc2ccccc2)c2ccccn12` [Example 8, 1-(phenylethynyl)-3-(4-trifluoromethylpyridin-3-yl)-imidazo[1,5-a]-pyridine], in assay [1] (setting [3]), the pest or weed control at 500 g/ha was not below 80%. In addition, the pest or weed control at 100 ppm in assay [2] is not below 80%.
Turning to `FC(F)(F)c1cc(Cl)c2c(Cl)nc(-c3cnccc3C(F)(F)F)n2c1` [Example 38], the pest or weed control at 500 g/ha in assay [1] (setting [3]) was not below 80%. Further, the pest or weed control at 100 ppm in assay [2] is not below 80%.
Consider `FC(F)(F)c1ccncc1-c1nc(CN(Cc2ccccc2)Cc2ccccc2)c2ccccn12` [Example 124, 1-(dibenzylaminomethyl)-3-(4-trifluoromethylpyridin-3-yl)-imidazo[1,5-a]pyridine], for which the pest or weed control at 500 g/ha in assay [1] (setting [3]) is not below 80%. The pest or weed control at 100 ppm in assay [2] is not below 80%.
As to `O=C(O)c1nc(-c2cnccc2C(F)(F)F)n2ccccc12` [Example 126, 3-(4-trifluoromethylpyridin-3-yl)-imidazo[1,5-a]pyridine-1-carboxylic acid], the pest or weed control at 500 g/ha in assay [1] (setting [3]) was not below 80%. Besides, the pest or weed control at 100 ppm in assay [2] was not below 80%.
For the compound `FC(F)(F)c1ccncc1-c1nc(/C=C/c2ccccc2)c2ccccn12` [Example 127, 1-(phenylvinylidene)-3-(4-Trifluoromethylpyridin-3-yl)-imidazo[1,5-a]-pyridine], the pest or weed control at 500 g/ha in assay [1] (setting [3]) is not below 80%. The pest or weed control at 100 ppm in assay [2] was not below 80%.
For the compound `CSc1nc(-c2cnccc2C(F)(F)F)n2ccccc12` [Example 128], the pest or weed control at 500 g/ha in assay [1] (setting [3]) was not below 80%.
On to `Cc1cc(C)nc(CNC(=O)c2cnccc2C(F)(F)F)n1` [II-11, N-(4,6-Dimethylpyrimidin-2-ylmethyl)-4-trifluoromethyl-nicotinamide], for which the pest or weed control at 500 g/ha in assay [1] (compounds of structure (II-b)) is not below 90%.
Same read-out and setting: the same measure for `O=C(NCc1ncccn1)c1cnccc1C(F)(F)F` [II-27, N-Pyrimidin-2-ylmethyl-4-trifluoromethyl-nicotinamide]: not below 90%; for `Cc1cnc(CNC(=O)c2cnccc2C(F)(F)F)cn1` [II-29]: not below 90%.
On to `Cc1cc(CNC(=O)c2cnccc2C(F)(F)F)nc(C)n1` [II-38, N-(2,6-Dimethylpyrimidin-4-ylmethyl)-4-trifluoromethyl nicotinamide], for which the results for the pest or weed control at 500 g/ha in assay [1] (setting [3]) and in assay [1] (compounds of structure (II-b)) were not below 80% and not below 90%, respectively.
